Source: patent US20090274714A1, “TUMOUR-ASSOCIATED PEPTIDES BINDING TO HUMAN LEUKOCYTE ANTIGEN (HLA) CLASS I OR II MOLECULES AND RELATED ANTI-CANCER VACCINE” (Immatics Boitechnologies GmhH, priority 2005, published 2009)
Where two headings read alike, the source gives them in different places. Ends that are not written are not given here.

Legend:
[1] = Physico-chemical characteristics: solubility; settings: solvent giving clear and colourless solution at 1 mg/ml
T-cells [2] = assay: Summary of in vitro immunogenicity (killer assay, cytokine release/staining, tetramer detection); assay type: cell-based, human; settings: reference: unpublished
Method: As in the latter case, several tumour cell lines endogenously expressing the antigen are also recognized.
IMA contains 10 HLA class I-binding peptides. To test the peptides regarding their in vitro immunogenicity, CD8-positive cytotoxic T-cells were generated from autologous peripheral blood mononuclear cells (PBMC) from healthy donors using single peptides contained in IMA and the activity of these cytotoxic T-cells was tested with chromium release assays and detection of T-cells with HLA tetramers in flow cytometry. Detailed data is shown for one exemplary peptide (IMA-MET-001) for both methods, the data for the other peptides is summarized in Table 8 above.
In the first step, cytotoxic T-cells are generated (primed) in vitro by repeated stimulation of peripheral blood mononuclear cells (PBMC) from healthy HLA-A*02 positive donors with the specific peptide to be tested. The priming can be done either using autologous dendritic cells generated from blood monocytes of the donor or using HLA tetramer-loaded beads.
A. Cytotoxic killing of target: In the second step, cytoxicity of such primed cytotoxic T-cells (CTLs) are tested by labelling target cells with radioactive chromium and incubating target cells with generated CTLs. The amount of radioactive chromium released into the supernatant can be correlated directly to proportion of killed target cells.
B. Detection of T-cells with HLA tetramers: Alternatively, in the second step primed CTLs with specificity for a given peptide are detected using HLA tetramers. Tetramers consist of four peptide-loaded HLA-A*02 molecules coupled to each other. These constructs allow specific labelling of the cognate T-cell receptor that recognizes the HLA-peptide-complex in the tetramer and by labelling of the tetramer with a fluorochrome followed by analysis in flow cytometry (FACS).

renal cell carcinoma = settings: monotherapy, advanced RCC; cited from earlier work
T-cells [3] = settings: reference: published literature; cited from earlier work
CD4-positive T-cells = assay: Intracellular IFNγ staining of in vitro primed CD4-positive T-cells; assay type: cell-based, human
Method: First, CD4-positive T-cells were generated (primed) in vitro by repeated stimulation of peripheral blood mononuclear cells (PBMC) from healthy donors with the specific peptide to be tested in the presence of IL-12. The priming was performed using autologous dendritic cells generated from blood monocytes of the donors. In the second step, the activity of primed CD4-positive T-cells specific for the given peptide were tested by measurement of IFNγ production by intracellular IFNγ staining using a fluorescently labelled antibody. The analysis was done by flow cytometry (FACS).
Human DCs were prepared out of PBMCs from freshly drawn blood from healthy donors. PBMCs were isolated using a Ficoll density gradient (Lymphocyte Separation Medium, PAA Laboratories GmbH, Pasching, Austria). The obtained cells were washed, resuspended in X-Vivo 15 medium supplemented with 50 U/ml penicillin, 50 μg/ml streptomycin and 2 mM L-Glutamine (BioWhittaker, Verviers, Belgium) and plated at a density of 7×10^6 cells/ml. […]
Cryopreserved PBMCs were thawed, washed two times in X-Vivo 15 medium, resuspended at 10^7 cells/ml in T-cell medium and cultured overnight to reduce unspecific IFNγ production (Provenzano 2002). […] Cells were analyzed using a Cytofix/Cytoperm Plus kit (Becton Dickinson) and CD4-FITC− (Immunotools), IFNγ-PE- and CD8-PerCP clone SKI-antibodies (Becton Dickinson). After staining, cells were analyzed on a three-color FACSCalibur (Becton Dickinson).
To generate antigen-specific CD4-positive T-cells and to test the peptide on promiscuous binding, PBMCs of 4 healthy donors with different HLA-DR alleles (FIG. 7) were stimulated using peptide-pulsed autologous DCs. As a read-out system for the generation of antigen-specific CD4-positive T-cells IFNγ production was assessed by flow cytometry. T-cells were analyzed after the third and the fourth stimulation by intracellular IFNγ staining plus CD4-FITC and CD8-PerCP staining to determine the percentage of IFNγ-producing cells in specific T-cell subpopulations. […]

[4] = University of Tübingen trial, cited from earlier work
T-cells [5] = settings: peptide not vaccinated; not present prior to vaccination; 2 RCC patients; cited from earlier work
[6] = test system: HLA-A*02 positive cell lines HCT 116, A498, MZ 1257, MCF-7, MeI 1479 and U266 that express c-Met; settings: HLA-A2+/c-Met+ cell lines; SK-OV-3, Croft, K 562 not recognized; cited from earlier work
U 266 and A 498 = settings: inhibitor to target ratio 20:1; cited from earlier work
[7] = test system: peptide loaded T2 cells and autologous DC; settings: cited from earlier work
[8] = biological target: T1, biotinylated recombinant HLA-A*0201 molecules lacking the transmembrane domain (human, biotinylated at the carboxy terminus of the heavy chain); assay: tetrameric recombinant HLA-A*0201 multimer loaded with the peptide, flow cytometry reagent
T1 construct: tetramerised on streptavidin-PE or streptavidin-APC at a 4:1 molar ratio, or coupled to streptavidin beads; also called HLA-A*0201 tetramer; HLA tetramers

[9] = biological target: T1, biotinylated recombinant HLA-A*0201 …; assay: recombinant HLA-A*0201 refolded with the peptide, used on beads and as tetramer

Molecule: ALADGVQKV-OH [IMA-APO-001]
- Solubility (Clear and colourless solution 1 mg/ml) [1]: water

Molecule: ALFDGDPHL-OH [IMA-K67-001]
- In vitro immunogenicity (assay by which shown) (T-cells [2]): Tetramer detection
- Solubility (Clear and colourless solution 1 mg/ml) [1]: 20% acetic acid

Molecule: IFNα
- response rate, initially reported (renal cell carcinoma): 25-30%
- true response rate suggested by additional trials (renal cell carcinoma): about 10%

Molecule: LAALPHSCL-OH [IMA-RGS-001]
- In vitro immunogenicity (assay by which shown) (T-cells [2]): Tetramer detection
- Solubility (Clear and colourless solution 1 mg/ml) [1]: water

Molecule: LLGATCMFV-OH [IMA-CCN-001]
- In vitro immunogenicity (assay by which shown) (T-cells [3]): Killer assay (allogeneic T cells)
- Solubility (Clear and colourless solution 1 mg/ml) [1]: 50% acetic acid

Molecule: SQDDIKGIQKLYGKRS-OH [IMA-MMP-001]
- In vitro immunogenicity (assay by which shown) (T-cells [2]): Cytokine staining
- healthy donors in whom CD4-positive T-cell responses were elicited (CD4-positive T-cells; 4 healthy donors with different HLA-DR alleles, positive if more than two fold over negative control): three out of four
- CD4-positive T-cell reactivity (intracellular IFN gamma) (CD4-positive T-cells; Donor 1, 2 and 3, after the third and the fourth stimulation): showed CD4-positive T-cells reactive
- CD4-positive T-cell reactivity (intracellular IFN gamma) (CD4-positive T-cells; Donor 4): always negative

Molecule: STAPPVHNV-OH [IMA-MUC-001]
- In vitro immunogenicity (assay by which shown) (T-cells [3]): Killer assay, cytokine release
- autoimmune effects ([4]; administered with autologous dendritic cells): no autoimmune effects
- tolerability ([4]; loaded on dendritic cells): very well tolerated
- Solubility (Clear and colourless solution 1 mg/ml) [1]: 10% acetic acid

Molecule: SVASTITGV-OH [IMA-ADF-001]
- In vitro immunogenicity (assay by which shown) (T-cells [3]): Killer assay
- specific T-cells after vaccination with non-related MUC peptides (epitope spreading) (T-cells [5]): detected
- Solubility (Clear and colourless solution 1 mg/ml) [1]: 10% acetic acid

Molecule: SVFAGVVGV-OH [IMA-GUC-001]
- Solubility (Clear and colourless solution 1 mg/ml) [1]: 90% acetic acid

Molecule: VMAGDIYSV-OH [IMA-ADF-002]
- In vitro immunogenicity (assay by which shown) (T-cells [2]): Tetramer detection
- Solubility (Clear and colourless solution 1 mg/ml) [1]: 10% acetic acid

Molecule: YVDPVITSI-OH [IMA-MET-001]
- In vitro immunogenicity (assay by which shown) (T-cells [3]): Killer assay, cytokine staining, tetramer
- lysis of tumour cells endogenously expressing c-Met by induced CTL [6]: able to efficiently lyse malignant cells expressing both HLA-A2 and c-Met
- effect of cold T2-cells pulsed with cognate peptide on lysis of tumour cells (U 266 and A 498): reduced the lysis of tumour cells
- cytotoxicity of induced CTL against peptide-loaded targets [7]: antigen-specific killing

B1: IMA-CCN-001 (peptide from Cyclin D1) (peptide)
peptide: LLGATCMFV
notes: HLA class I TUMAP; not identified by elution from tumour tissue; also called rCCN-001; CNN-001
- binding result [8]: binds

B2: IMA-MET-001 (peptide from c-met proto-oncogene) (peptide)
peptide: YVDPVITSI
notes: HLA class I TUMAP; also called c-Met peptide
- binding result [9]: binds

Molecule: ALFDGDPHL (HLA class I TUMAP) [IMA-K67-001 (peptide from KIAA0367)]
- binding result [8]: binds
